Reference: patent US6852744B2, “Pyrrolidine derivatives and their use as chymase inhibitor” (Dainippon Pharmaceutical Co., Ltd., priority 2000, dated 2005)

What follows are molecules tested against T1, monkey chymase (Macaca fascicularis, UniProt P56435) (assay: Monkey chymase inhibitory activity (in vitro, angiotensin I substrate)). Conditions: Monkey Chymase Inhibition (IC50:nM), chymase purified from monkey cheek pouch and stomach; substrate angiotensin I; 37° C.
T1 construct: chymase was extracted from homogenized monkey cheek pouch and stomach; from tissue; host or cells: monkey cheek pouch and stomach
T1 sequence (P56435 22-247): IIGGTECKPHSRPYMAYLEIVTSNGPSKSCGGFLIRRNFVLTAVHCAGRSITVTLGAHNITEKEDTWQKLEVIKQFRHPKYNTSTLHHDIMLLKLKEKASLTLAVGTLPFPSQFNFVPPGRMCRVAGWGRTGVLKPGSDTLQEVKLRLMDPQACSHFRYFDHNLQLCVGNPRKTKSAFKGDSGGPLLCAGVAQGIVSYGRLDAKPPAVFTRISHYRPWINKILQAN
Format: biochemical
Protocol: The inhibitory activities of the compounds on monkey chymase and human chymase were tested in vitro. The test compounds are as shown by Compound Nos. in Tables 13 and 14.
Preparation of Monkey Chymase
Chymase was purified from monkey cheek pouch and stomach in the following manner.
Briefly, chymase was extracted from homogenized monkey cheek pouch and stomach with 0.01 mol/1000 ml sodium phosphate buffer, pH 7.4, containing 2 mol/1000 ml KCl and 0.1% Nonidet P-40 (Amresco Inc.). The solution containing chymase was applied to a heparin actigel column, and the chymase-rich fractions were collected.
Measurement of Chymase Inhibitory Activity (In Vitro Assay)
Briefly, the purified monkey or human chymase was diluted to an appropriate concentration with 0.01 mol/1000 ml sodium phosphate buffer, pH 7.4, containing 2 mol/1000 ml KCl and 0.1% Nonidet P-40 and used as enzyme solution. Angiotensin I (Peptide Institute Inc.) was diluted with water to 5 mg/ml and used as substrate solution. Test compounds were serially diluted with 10% DMSO. […] After pre-incubation of the mixture at 37° C., 20 μl of the substrate solution was added to the enzyme-test compound mixture and the new mixture was incubated at 37° C. Fifty μl of 30% trichloroacetic acid solution was finally added to stop the enzymatic reaction.
The amount of L-His-L-Leu was measured as angiotensin II produced by the enzymatic reaction. Briefly, 10 μl of the reaction mixture and 10 μl of 1% orthophthalaldehyde solution dissolved in methanol were mixed with 100 μl of 2 mol/1000 ml NaOH and kept at room temperature. The reaction was then stopped by adding 10 μl of 6 mol/1000 ml HCl.

Compound	IC50
CC(C)[C@H](NC(=O)c1ccncc1)C(=O)N1CCC[C@H]1C(=O)NC(Cc1csc2ccccc12)C(=O)C(F)(F)F (stereo partly drawn) [I-A-66]	49 nM

Same assay, conditions: chymase purified from monkey cheek pouch and stomach; substrate angiotensin I; 37° C.; read-out: Monkey Chymase Inhibition (IC50:nM)

Compound	IC50
Cc1noc(C)c1C(=O)N[C@H](C(=O)N1CCC[C@H]1C(=O)NC(Cc1ccc(I)cc1)C(=O)C(F)(F)F)C(C)C (stereo partly drawn) [I-A-42]	130 nM
CC(C)[C@H](NC(=O)c1ccc2c(c1)OCO2)C(=O)N1CCC[C@H]1C(=O)NC(Cc1csc2ccccc12)C(=O)C(F)(F)F (stereo partly drawn) [I-A-57]	100 nM
CC[C@H](NC(=O)c1snnc1C)C(=O)N1CCC[C@H]1C(=O)NC(Cc1csc2ccccc12)C(=O)C(F)(F)F (stereo partly drawn) [I-A-21]	19 nM
Cc1noc(C)c1C(=O)N[C@H](C(=O)N1CCC[C@H]1C(=O)NC(Cc1ccc2c(c1)CCC2)C(=O)C(F)(F)F)C(C)C (stereo partly drawn) [I-A-18]	220 nM
CC(C)[C@H](NC(=O)c1ccccn1)C(=O)N1CCC[C@H]1C(=O)NC(Cc1csc2ccccc12)C(=O)C(F)(F)F (stereo partly drawn) [I-A-67]	94 nM
Cc1noc(C)c1C(=O)N[C@H](C(=O)N1CCC[C@H]1C(=O)NC(Cc1c[nH]c2ccccc12)C(=O)C(F)(F)F)C(C)C (stereo partly drawn) [I-A-10]	77 nM
Cc1noc(C)c1C(=O)N[C@H](C(=O)N1CCC[C@H]1C(=O)NC(Cc1cc2ccccc2s1)C(=O)C(F)(F)F)C(C)C (stereo partly drawn) [I-A-98]	63 nM
Cc1ccccc1CC(NC(=O)[C@@H]1CCCN1C(=O)[C@@H](NC(=O)c1c(C)noc1C)C(C)C)C(=O)C(F)(F)F (stereo partly drawn) [I-A-33]	73 nM
CC(C)[C@H](NC(=O)c1nsc(Cl)c1Cl)C(=O)N1CCC[C@H]1C(=O)NC(Cc1csc2ccccc12)C(=O)C(F)(F)F (stereo partly drawn) [I-A-75]	380 nM
CC(C)[C@H](NC(=O)c1onc2cccnc12)C(=O)N1CCC[C@H]1C(=O)NC(Cc1csc2ccccc12)C(=O)C(F)(F)F (stereo partly drawn) [I-A-71]	140 nM
Cc1snnc1C(=O)N[C@H](C(=O)N1CCC[C@H]1C(=O)NC(Cc1cc2ccccc2s1)C(=O)C(F)(F)F)C(C)C (stereo partly drawn) [I-A-99]	83 nM
Cc1noc(C)c1C(=O)N[C@H](C(=O)N1CCC[C@H]1C(=O)NC(Cc1cccs1)C(=O)C(F)(F)F)C(C)C (stereo partly drawn) [I-A-17]	140 nM
Cc1nnsc1C(=O)N[C@H](C(=O)N1CCC[C@H]1C(=O)NC(Cc1ccc2c(c1)CCC2)C(=O)C(F)(F)F)C(C)C (stereo partly drawn) [I-A-24]	150 nM
CC(C)[C@H](NC(=O)c1onc2ccccc12)C(=O)N1CCC[C@H]1C(=O)NC(Cc1csc2ccccc12)C(=O)C(F)(F)F (stereo partly drawn) [I-A-59]	250 nM
CC(C)(C)OC(=O)Cn1c(=O)ccn(CC(=O)N[C@@H](CC2CCCCC2)C(=O)N2CCC[C@H]2C(=O)NC(Cc2ccccc2)C(=O)C(F)(F)F)c1=O (stereo partly drawn) [I-A-92]	860 nM
Cc1noc(C)c1C(=O)N[C@@H](Cc1ccccc1)C(=O)N1CCC[C@H]1C(=O)NC(Cc1csc2ccccc12)C(=O)C(F)(F)F (stereo partly drawn) [I-A-8]	48 nM
CC(C)[C@H](NC(=O)c1cccnc1Oc1ccccc1)C(=O)N1CCC[C@H]1C(=O)NC(Cc1csc2ccccc12)C(=O)C(F)(F)F (stereo partly drawn) [I-A-73]	300 nM
Cc1noc(C)c1C(=O)N[C@@H](Cc1ccccc1)C(=O)N1CCC[C@H]1C(=O)NC(Cc1ccccc1)C(=O)C(F)(F)F (stereo partly drawn) [I-A-14]	59 nM
Cc1noc(C)c1C(=O)N[C@H](C(=O)N1CCC[C@H]1C(=O)NC(Cc1ccccc1Cl)C(=O)C(F)(F)F)C(C)C (stereo partly drawn) [I-A-39]	120 nM
CC(C)[C@H](NC(=O)c1snnc1-c1ccccc1)C(=O)N1CCC[C@H]1C(=O)NC(Cc1csc2ccccc12)C(=O)C(F)(F)F (stereo partly drawn) [I-A-68]	27 nM
Cc1ccc(CC(NC(=O)[C@@H]2CCCN2C(=O)[C@@H](NC(=O)c2c(C)noc2C)C(C)C)C(=O)C(F)(F)F)cc1 (stereo partly drawn) [I-A-35]	80 nM
Cc1noc(C)c1C(=O)N[C@H](C(=O)N1CCC[C@H]1C(=O)NC(Cc1ccccc1F)C(=O)C(F)(F)F)C(C)C (stereo partly drawn) [I-A-27]	51 nM
CC(C)[C@H](NC(=O)c1noc2ccccc12)C(=O)N1CCC[C@H]1C(=O)NC(Cc1csc2ccccc12)C(=O)C(F)(F)F (stereo partly drawn) [I-A-58]	210 nM
CC(C)[C@H](NC(=O)c1ccnc2ccccc12)C(=O)N1CCC[C@H]1C(=O)NC(Cc1csc2ccccc12)C(=O)C(F)(F)F (stereo partly drawn) [I-A-56]	47 nM
Cc1nc2c(C(=O)N[C@H](C(=O)N3CCC[C@H]3C(=O)NC(Cc3csc4ccccc34)C(=O)C(F)(F)F)C(C)C)cccc2o1 (stereo partly drawn) [I-A-60]	430 nM
Cc1noc(C)c1C(=O)N[C@H](C(=O)N1CCC[C@H]1C(=O)NC(Cc1ccc(Cl)cc1)C(=O)C(F)(F)F)C(C)C (stereo partly drawn) [I-A-29]	57 nM
Cc1noc(C)c1C(=O)N[C@H](C(=O)N1CCC[C@H]1C(=O)NC(Cc1ccc(F)cc1)C(=O)C(F)(F)F)C(C)C (stereo partly drawn) [I-A-30]	65 nM

Other lines, results leading:

IC50	Compound
37 nM	Cc1nnsc1C(=O)N[C@H](C(=O)N1CCC[C@H]1C(=O)NC(Cc1ccc2ccccc2c1)C(=O)C(F)(F)F)C(C)C (stereo partly drawn) [I-A-22]
190 nM	CC(C)[C@H](NC(=O)CN1CCN(CC(=O)OC(C)(C)C)C1=O)C(=O)N1CCC[C@H]1C(=O)NC(Cc1ccc2ccccc2c1)C(=O)C(F)(F)F (stereo partly drawn) [I-A-84]
120 nM	Cc1cccc(CC(NC(=O)[C@@H]2CCCN2C(=O)[C@@H](NC(=O)c2c(C)noc2C)C(C)C)C(=O)C(F)(F)F)c1 (stereo partly drawn) [I-A-40]
160 nM	CC(C)[C@H](NC(=O)c1ccsc1)C(=O)N1CCC[C@H]1C(=O)NC(Cc1csc2ccccc12)C(=O)C(F)(F)F (stereo partly drawn) [I-A-72]
68 nM	CC(C)[C@H](NC(=O)Cn1ccc(=O)n(CC(=O)O)c1=O)C(=O)N1CCC[C@H]1C(=O)NC(Cc1ccccc1)C(=O)C(F)(F)F (stereo partly drawn) [I-A-88]
280 nM	CC(C)[C@H](NC(=O)Cn1ccc(=O)n(CC(=O)OC(C)(C)C)c1=O)C(=O)N1CCC[C@H]1C(=O)NC(Cc1ccc(Cl)cc1)C(=O)C(F)(F)F (stereo partly drawn) [I-A-90]
61 nM	CC(C)[C@H](NC(=O)CN1CCN(CC(=O)O)C1=O)C(=O)N1CCC[C@H]1C(=O)NC(Cc1ccc2ccccc2c1)C(=O)C(F)(F)F (stereo partly drawn) [I-A-83]
140 nM	CC(C)[C@H](NC(=O)c1cccs1)C(=O)N1CCC[C@H]1C(=O)NC(Cc1csc2ccccc12)C(=O)C(F)(F)F (stereo partly drawn) [I-A-70]
75 nM	CC(C)[C@H](NC(=O)CN1CCN(CC(=O)O)C1=O)C(=O)N1CCC[C@H]1C(=O)NC(Cc1cc2ccccc2s1)C(=O)C(F)(F)F (stereo partly drawn) [I-A-85]
50 nM	CC[C@H](NC(=O)c1c(C)noc1C)C(=O)N1CCC[C@H]1C(=O)NC(Cc1ccc2ccccc2c1)C(=O)C(F)(F)F (stereo partly drawn) [I-A-13]
200 nM	Cc1cn(CC(=O)N[C@H](C(=O)N2CCC[C@H]2C(=O)NC(Cc2cc3ccccc3s2)C(=O)C(F)(F)F)C(C)C)c(=O)n(Cc2ccccc2)c1=O (stereo partly drawn) [I-A-93]
260 nM	Cc1nsc(C(=O)N[C@H](C(=O)N2CCC[C@H]2C(=O)NC(Cc2cc3ccccc3s2)C(=O)C(F)(F)F)C(C)C)n1 (stereo partly drawn) [I-A-100]
110 nM	Cc1noc(C)c1C(=O)N[C@H](C(=O)N1CCC[C@H]1C(=O)NC(Cc1cccc(Cl)c1)C(=O)C(F)(F)F)C(C)C (stereo partly drawn) [I-A-38]
50 nM	CC[C@H](NC(=O)c1snnc1C)C(=O)N1CCC[C@H]1C(=O)NC(Cc1ccc2ccccc2c1)C(=O)C(F)(F)F (stereo partly drawn) [I-A-23]
150 nM	O=C(O)Cn1c(=O)ccn(CC(=O)N[C@@H](CC2CCCCC2)C(=O)N2CCC[C@H]2C(=O)NC(Cc2ccccc2)C(=O)C(F)(F)F)c1=O (stereo partly drawn) [I-A-91]
250 nM	CC(C)[C@H](NC(=O)CN1CCN(Cc2ccccc2)C1=O)C(=O)N1CCC[C@H]1C(=O)NC(Cc1cc2ccccc2s1)C(=O)C(F)(F)F (stereo partly drawn) [I-A-87]
350 nM	CC(C)[C@H](NC(=O)c1ccco1)C(=O)N1CCC[C@H]1C(=O)NC(Cc1csc2ccccc12)C(=O)C(F)(F)F (stereo partly drawn) [I-A-74]
